# According to US6413999B1, “Treatment for acute physical insult to the central nervous system” (University of Saskatchewan Technologies Inc., priority 1999, dated 2002):
# Key:
# Type in all cases: in vivo, rat
# [1] = test system: Wistar rats with clip compression injury at the T6 spinal cord level; test: Spinal cord GSH content after 50 g clip compression injury at T6; conditions: 26 hours following injury and 2 hours following OTC administration; versus saline P=0.0033; FIG. 4
# Protocol: (§1) Adult male Wistar rats (˜320 g) were obtained from Charles River Canada and housed in a temperature-regulated animal facility, exposed to a 12 hour light/dark cycle and had free access to food and water. Animals were treated in accordance with the guidelines of the Canadian Council on Animal Care. Prior in surgery, the rats received the analgesic Buprenorphine-hydrochloride subcutaneously at a dose of 0.05 mg/kg and then every 12 hours for the first 72 hours following surgery. Anesthesia was performed with Halothane (5% induction and 1% maintenance). Laminectomy was performed aseptically at T5-T6 to expose the spinal cord. A 5-second clip compression injury was induced at the T6 spinal cord level using a modified Kerr-Lougheed aneurysm clip with a calibrated force of 50 g as described in Rivlin et al. (Surg. Neurol., 9, 39-43, 1979) and Khan et al. (Can. J. Neurol. Sci., 10, 161-165, 1983). […]
# (§2) A total of 54 animals were used to determine the onset of oxidative stress following insult. […] Spinal cord segments were frozen in liquid nitrogen and stored at −80° C. until analyzed.
# GSH was measured using 5,5′-dithio-bis(2-nitrobenzoic) acid-derivatization (“DTNB”) followed by HPLC and UV detection. […] The homogenates were centrifuged at 10,000 g for 15 min and supernatants collected, derivatized and analyzed using the Shimadzu reversed-phase HPLC with ultraviolet detection. […]
# [2] = test system: rats with unilateral carotid artery ligation and 12% oxygen atmosphere; test: Vascular event model (unilateral carotid artery ligation plus 12% oxygen): brain damage and GSH
# Protocol: Nine to eleven week old rats were obtained and housed as described in Example 1A. Animals were treated in accordance with the guidelines of the Canadian Council on Animal Care.
# The rats were randomly divided into two groups. Both groups of rats underwent unilateral carotid artery ligation and were then subjected to a 12% oxygen atmosphere for 35 minutes. Fifteen minutes after insult, rats of one group received an initial dose of OTC (12 mmoles/kg body weight) and rats of the other group receive the phosphate-buffered saline vehicle (“saline”). Rats received subsequent doses of OTC (4 mmoles/kg body weight) or saline, as appropriate, every 12 hours for 3 days.
# Rats were sacrificed 1 week following insult and brain damage was assessed.
# Brain damage following a vascular event was assessed using the method of Thornhill, et al. (Brain Res. 825(1-2):36-45 (1999).
# [3] = Body weight after spinal cord clip compression injury; conditions: T6 clip compression; OTC 12 mmoles/kg i.p. 30 min after injury, then 4 mmoles/kg every 12 h for five days; pre-surgery 328.3±4.2 g; saline 403.9±9.5 g; P=0.0337
# Protocol: Adult male Wistar rats (˜320 g) were obtained from Charles River Canada and housed in a temperature-regulated animal facility, exposed to a 12 hour light/dark cycle and had free access to food and water. Animals were treated in accordance with the guidelines of the Canadian Council on Animal Care. Prior in surgery, the rats received the analgesic Buprenorphine-hydrochloride subcutaneously at a dose of 0.05 mg/kg and then every 12 hours for the first 72 hours following surgery. Anesthesia was performed with Halothane (5% induction and 1% maintenance). Laminectomy was performed aseptically at T5-T6 to expose the spinal cord. A 5-second clip compression injury was induced at the T6 spinal cord level using a modified Kerr-Lougheed aneurysm clip with a calibrated force of 50 g as described in Rivlin et al. (Surg. Neurol., 9, 39-43, 1979) and Khan et al. (Can. J. Neurol. Sci., 10, 161-165, 1983). For delivery of drug or saline vehicle a sterile catheter was placed subcutaneously running from the dorsum to enter the peritoneal cavity ventrally; this was done before the laminectomy was performed. Thirty minutes following spinal cord compression an initial dose of OTC or phosphate-buffered saline vehicle (“saline”) was delivered intraperitoneally and then subsequent doses were administered every 12 hours for the next five days. […]
# [4] = test system: rats with acute physical insult to the CNS; test: Inflammation (observation, ICAM-1 and iNOS levels) following insult; conditions: OTC following insult, compared to saline-treated controls
# Protocol: Inflammation was assessed by observation and by measurement of ICAM-1 and iNOS levels. A significant increase in inflammation was observed following insult.
# [5] = test system: Wistar rats with clip compression injury at the T6 spinal cord level; test: Functional recovery after spinal cord compression (angleboard, modified Tarlov score, BBB scale)
# Protocol: as §1, with “cord.” for “cord. A 5-second clip compression injury was induced at the T6 spinal cord level using a modified Kerr-Lougheed aneurysm clip with a calibrated force of 50 g as described in Rivlin et al. (Surg. Neurol., 9, 39-43, 1979) and Khan et al. (Can. J. Neurol. Sci., 10, 161-165, 1983).”
# A semiquantitative assessment of hindlimb function during open field walking gas performed using the modified Tarlov score (Tariq et al.). Spontaneous activity of hind limb was scored as follows: 0=total paraplegia of hindlimbs; 1=no spontaneous movements but responds to hindlimb pinch; 2=spontaneous movement; 3=able to support weight but unable to walk; 4=walks with gross deficit; 5=walks with mild deficit on broad flat surface, 6=able to walk on broad flat surface and support weight on a 1.8 cm wide ledge; 7=walks on ledge. […]
# [6] = test system: Wistar rats with clip compression injury at the T6 spinal cord level; test: Spinal cord protein carbonyl content after clip compression injury at T6; conditions: 24 hours post-trauma; T5 (P<0.05), T6, T7 (P<0.01), T9 (P<0.05) versus saline; FIG. 3
# Protocol: as §1, with “cord.” for “cord. A 5-second clip compression injury was induced at the T6 spinal cord level using a modified Kerr-Lougheed aneurysm clip with a calibrated force of 50 g as described in Rivlin et al. (Surg. Neurol., 9, 39-43, 1979) and Khan et al. (Can. J. Neurol. Sci., 10, 161-165, 1983).”
# as §2
# Protein carbonyl content was determined spectrophotometrically using 2,4-dinitrophenylhydrazine (DNPH) to trap carbonyls with the adduct formed measured at 360 nm. Results are expressed as pmoles of DNPH incorporated per mg of protein calculated using a molar absorption coefficient of 22,000 M^−1 cm^−1 for aliphatic hydrazones.
# [7] = test system: Wistar rats with clip compression injury at the T6 spinal cord level; test: Spinal cord glutathione reductase activity after clip compression injury at T6; conditions: 24 hours following spinal cord injury; T5 (P<0.05), T6, T7, T9 (P<0.01) versus saline vehicle; FIG. 2
# Protocol: as §1, §2
# Glutathione reductase was calculated by measuring the disappearance of NADPH (SIGMA (trade-mark)) in the presence of oxidized-glutathione based upon the procedure described by Eklow et al. (Eur. J. Biochem. 138, 459-463 (1984)), as applied in Juurlink et al (Glia 22, 371-378, 1998)).
# [8] = test system: Wistar rats with clip compression injury at the T6 spinal cord level; test: Spinal cord histomorphometry (luxol fast blue white matter) 6 weeks after injury
# Protocol: as §1, with “cord.” for “cord. A 5-second clip compression injury was induced at the T6 spinal cord level using a modified Kerr-Lougheed aneurysm clip with a calibrated force of 50 g as described in Rivlin et al. (Surg. Neurol., 9, 39-43, 1979) and Khan et al. (Can. J. Neurol. Sci., 10, 161-165, 1983).”
# Following 6 weeks of behavioral evaluation, the spinal cords were fixed by transcardial perfusion with 0.03M phosphate-buffered saline (pH 7.4) containing 1% sodium nitrite in rats anesthetized with Halothane, followed by perfusion (100 ml/100 g) with either 4% formaldehyde (freshly prepared from paraformaldehyde) or FAM solution (formaldehyde, acetic acid and methanol in 1:1:8 ratio) and left in the same fixative for 5 days. […] Area of white matter was quantified using Northern Eclipse™ software and expressed in pixels.
smiles,measurement,setting,value
"O=C1N[C@H](C(=O)O)CS1 [OTC, L-2-oxothiazolidine-4-carboxylate]",GSH levels in the affected CNS region,[1],increased GSH levels
same,brain damage score,"[2]; 1 week following insult, OTC 12 mmoles/kg 15 min after insult, then 4 mmoles/kg every 12 h for 3 days, saline score 2.67, FIG. 9",1.86
same,concentrations of GSH in the affected CNS regions,"[2]; insult by a vascular event, compared to saline-treated animals",higher concentrations of GSH
same,weight of animals 6 weeks after surgery,[3],434.3 ± 9.3 g
same,levels of inflammation (ICAM-1 and iNOS),[4],lower levels of inflammation
same,modified Tarlov score,"[5]; 6 weeks after trauma, scale 0-7, after trauma 1, saline 2.4, FIG. 8a",4.1
same,angleboard capacity angle,"[5]; 6 weeks recovery, before insult 59°, after insult 28°, saline 32°, FIG. 7",42 °
same,protein carbonyl content in spinal cord,[6],significantly decreased protein carbonyl formation
same,glutathione reductase activity in spinal cord,[7],significantly inhibited the decrease in glutathione reductase activity
same,grey matter sparing at T6,[8],did not result in grey matter sparing
